Experimental data as given in PMC9385451 (International Journal for Parasitology: Drugs and Drug …, 2022).

Target: T1, Eimeria tenella aldolase 2 (EtALD2), fructose-1,6-bisphosphate aldolase (Eimeria tenella, UniProt U6KYI1)
T1 sequence (U6KYI1 1-368): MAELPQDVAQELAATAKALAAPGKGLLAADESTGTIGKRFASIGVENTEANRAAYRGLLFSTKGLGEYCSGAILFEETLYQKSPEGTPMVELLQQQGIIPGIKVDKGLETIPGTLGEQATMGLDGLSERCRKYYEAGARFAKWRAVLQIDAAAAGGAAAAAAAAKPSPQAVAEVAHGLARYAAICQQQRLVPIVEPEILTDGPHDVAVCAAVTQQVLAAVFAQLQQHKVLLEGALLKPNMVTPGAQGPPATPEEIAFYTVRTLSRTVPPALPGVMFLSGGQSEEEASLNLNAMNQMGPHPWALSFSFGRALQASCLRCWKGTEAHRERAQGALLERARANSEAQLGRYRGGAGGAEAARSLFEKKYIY
Format: biochemical

O=c1c(O)c(-c2ccc(O)cc2O)oc2cc(O)cc(O)c12 [morin]
IC50: 10.4 µM
